Test results reported in ChEMBL document CHEMBL4610097, “Daphnane Diterpenoids from Daphne genkwa Inhibit PI3K/Akt/mTOR Signaling and Induce Cell Cycle Arrest and Apoptosis in Human Colon Cancer Cells” (J Nat Prod, 2020).
Calls of active or inactive are those of the source. The calls are words filed in the database; no cut-off is given here.

Assays:
SW-620 [1] = assay: Induction of apoptosis in human SW620 cells assessed as increase in cleaved PARP at 0.74 to 11.84 uM after 24 hrs by Western blot analysis; type: functional, cell-based
SW-620 [2] = assay: Induction of apoptosis in human SW620 cells assessed as viable cells at 0.74 uM after 24 hrs by annexin V/propidium iodide staining-based flow cytometric analysis (reference value: 96.9%); type: functional; settings: SW-620, 24 h, read-out: Activity
[3] = Inhibition of PI3K/Akt/mTOR signalling pathway in human SW620 cells assessed as reduction in mTOR phosphorylation at 0.74 to 11.84 uM after 24 hrs by Western blot analysis; type: cell-based; settings: SW-620
SW-620 [4] = assay: Induction of cell cycle arrest in human SW620 cells assessed as accumulation at S phase at 1.48 uM after 24 hrs by propidium iodide staining-based flow cytometric analysis (reference value: 23.83%); type: functional
SW-620 [5] = assay: Induction of apoptosis in human SW620 cells assessed as early apoptotic cells at 11.84 uM after 24 hrs by annexin V/propidium iodide staining-based flow cytometric analysis (reference value: 0.36%); type: functional
SW-620 [6] = assay: Induction of apoptosis in human SW620 cells assessed as late apoptotic cells at 5.92 uM after 24 hrs by annexin V/propidium iodide staining-based flow cytometric analysis (reference value: 2.40%); type: functional
SW-620 [7] = assay: Induction of cell cycle arrest in human SW620 cells assessed as accumulation at G0/G1 phase at 2.96 uM after 24 hrs by propidium iodide staining-based flow cytometric analysis (reference value: 56.11%); type: functional
SW-620 [8] = assay: Induction of cell cycle arrest in human SW620 cells assessed as accumulation at G2/M phase at 5.92 uM after 24 hrs by propidium iodide staining-based flow cytometric analysis (reference value: 20.06%); type: functional
SW-620 [9] = assay: Induction of apoptosis in human SW620 cells assessed as late apoptotic cells at 11.84 uM after 24 hrs by annexin V/propidium iodide staining-based flow cytometric analysis (reference value: 2.40%); type: functional
SW-620 [10] = assay: Induction of apoptosis in human SW620 cells assessed as increase in cleaved caspase-9 at 0.74 to 11.84 uM after 24 hrs by Western blot analysis; type: functional, cell-based
SW-620 [11] = assay: Downregulation of PI3K p85 expression in human SW620 cells at 0.74 to 11.84 uM after 24 hrs by Western blot analysis; type: functional, cell-based
SW-620 [12] = assay: Induction of apoptosis in human SW620 cells assessed as necrotic cells at 1.48 uM after 24 hrs by annexin V/propidium iodide staining-based flow cytometric analysis (reference value: 0.30%); type: functional
SW-620 [13] = assay: Induction of apoptosis in human SW620 cells assessed as necrotic cells at 0.74 uM after 24 hrs by annexin V/propidium iodide staining-based flow cytometric analysis (reference value: 0.30%); type: functional
SW-620 [14] = assay: Induction of apoptosis in human SW620 cells assessed as viable cells at 11.84 uM after 24 hrs by annexin V/propidium iodide staining-based flow cytometric analysis (reference value: 96.9%); type: functional; settings: SW-620, 24 h, read-out: Activity
SW-620 [15] = assay: Induction of cell cycle arrest in human SW620 cells assessed as accumulation at G0/G1 phase at 0.74 uM after 24 hrs by propidium iodide staining-based flow cytometric analysis (reference value: 56.11%); type: functional
SW-620 [16] = assay: Induction of apoptosis in human SW620 cells assessed as viable cells at 1.48 uM after 24 hrs by annexin V/propidium iodide staining-based flow cytometric analysis (reference value: 96.9%); type: functional; settings: SW-620, 24 h, read-out: Activity
SW-620 [17] = assay: Induction of apoptosis in human SW620 cells assessed as late apoptotic cells at 2.96 uM after 24 hrs by annexin V/propidium iodide staining-based flow cytometric analysis (reference value: 2.40%); type: functional
SW-620 [18] = assay: Induction of apoptosis in human SW620 cells assessed as viable cells at 5.92 uM after 24 hrs by annexin V/propidium iodide staining-based flow cytometric analysis (reference value: 96.9%); type: functional; settings: SW-620, 24 h, read-out: Activity
SW-620 [19] = assay: Induction of cell cycle arrest in human SW620 cells assessed as accumulation at G0/G1 phase at 1.48 uM after 24 hrs by propidium iodide staining-based flow cytometric analysis (reference value: 56.11%); type: functional
RKO = assay: Cytotoxicity against human RKO cells after 24 hrs by MTT assay; type: functional, cell-based
SW-620 [20] = assay: Induction of cell cycle arrest in human SW620 cells assessed as accumulation at G2/M phase at 1.48 uM after 24 hrs by propidium iodide staining-based flow cytometric analysis (reference value: 20.06%); type: functional
[21] = Inhibition of PI3K/Akt/mTOR signalling pathway in human SW620 cells assessed as reduction in Akt phosphorylation at 0.74 to 11.84 uM after 24 hrs by Western blot analysis; type: cell-based; settings: SW-620
SW-620 [22] = assay: Induction of apoptosis in human SW620 cells assessed as increase in Bax/Bcl2 ratio at 0.74 to 11.84 uM after 24 hrs by Western blot analysis; type: functional, cell-based
SW-620 [23] = assay: Induction of apoptosis in human SW620 cells assessed as early apoptotic cells at 5.92 uM after 24 hrs by annexin V/propidium iodide staining-based flow cytometric analysis (reference value: 0.36%); type: functional
SW-620 [24] = assay: Induction of apoptosis in human SW620 cells assessed as increase in cleaved caspase-3 at 0.74 to 11.84 uM after 24 hrs by Western blot analysis; type: functional, cell-based
SW-620 [25] = assay: Induction of cell cycle arrest in human SW620 cells assessed as accumulation at S phase at 11.84 uM after 24 hrs by propidium iodide staining-based flow cytometric analysis (reference value: 23.83%); type: functional
SW-620 [26] = assay: Induction of cell cycle arrest in human SW620 cells assessed as accumulation at S phase at 5.92 uM after 24 hrs by propidium iodide staining-based flow cytometric analysis (reference value: 23.83%); type: functional
SW-620 [27] = assay: Induction of apoptosis in human SW620 cells assessed as early apoptotic cells at 1.48 uM after 24 hrs by annexin V/propidium iodide staining-based flow cytometric analysis (reference value: 0.36%); type: functional
SW-620 [28] = assay: Induction of apoptosis in human SW620 cells assessed as necrotic cells at 5.92 uM after 24 hrs by annexin V/propidium iodide staining-based flow cytometric analysis (reference value: 0.30%); type: functional
SW-620 [29] = assay: Induction of apoptosis in human SW620 cells assessed as late apoptotic cells at 0.74 uM after 24 hrs by annexin V/propidium iodide staining-based flow cytometric analysis (reference value: 2.40%); type: functional
SW-620 [30] = assay: Induction of cell cycle arrest in human SW620 cells assessed as accumulation at S phase at 2.96 uM after 24 hrs by propidium iodide staining-based flow cytometric analysis (reference value: 23.83%); type: functional
SW-620 [31] = assay: Induction of apoptosis in human SW620 cells assessed as appearance of apoptotic bodies at 11.84 uM after 24 hrs by acridine orange/propidium iodide staining based microscopic analysis; type: functional, cell-based
SW-620 [32] = assay: Induction of cell cycle arrest in human SW620 cells assessed as accumulation at G2/M phase at 2.96 uM after 24 hrs by propidium iodide staining-based flow cytometric analysis (reference value: 20.06%); type: functional
SW-620 [33] = assay: Induction of cell cycle arrest in human SW620 cells assessed as accumulation at G0/G1 phase at 11.84 uM after 24 hrs by propidium iodide staining-based flow cytometric analysis (reference value: 56.11%); type: functional

## C=C(C)[C@@]12O[C@@]3(/C=C/C=C/CCCCC)O[C@@H]1[C@@H]1[C@H](O)[C@@](O)(CO)[C@@H](O)[C@]4(O)C(=O)C(C)=C[C@H]4[C@@]1(O3)[C@H](C)[C@H]2OC(=O)c1ccccc1
SW-620 [1]
  Activity: Active
SW-620 [2]
  viability at 0.74 µM: 80.8%
[3]
  inhibition: Active
SW-620 [4]
  Activity: 14.19%
SW-620 [5]
  Activity: 10.7%
SW-620 [6]
  Activity: 58.5%
SW-620 [7]
  Activity: 82.07%
SW-620 [8]
  Activity: 3.52%
SW-620 [9]
  Activity: 86.3%
SW-620 [10]
  Activity: Active
SW-620 [11]
  Activity: Active
SW-620 [12]
  Activity: 0.43%
SW-620 [13]
  Activity: 0.1%
SW-620 [14]
  viability at 11.84 µM: 1.33%
SW-620 [15]
  Activity: 76.93%
SW-620 [16]
  viability at 1.48 µM: 45.4%
SW-620 [17]
  Activity: 49.4%
SW-620 [18]
  viability at 5.92 µM: 36.6%
SW-620 [19]
  Activity: 78.73%
RKO
  IC50: 6.5 µM
SW-620 [20]
  Activity: 7.08%
[21]
  inhibition: Active
SW-620 [22]
  Activity: Active
SW-620 [23]
  Activity: 4.67%
SW-620 [24]
  Activity: Active
SW-620 [25]
  Activity: 9.49%
SW-620 [26]
  Activity: 11.73%
SW-620 [27]
  Activity: 5.64%
SW-620 [28]
  Activity: 0.25%
SW-620 [29]
  Activity: 15.9%
SW-620 [30]
  Activity: 12.76%
SW-620 [31]
  Activity: Active
SW-620 [32]
  Activity: 5.17%
SW-620 [33]
  Activity: 88.08%
